Experimental data from patent US20150328169A1, “POLYMERIC PARTICLES-BASED TEMOZOLOMIDE DOSAGE FORM” (OY FILANA LTD, priority 2012, published 2015).

Key:
[1] = clinical trials; cited from earlier work
Balb/c mice = assay: Acute toxicity, single intraperitoneal dose, Litchfield-Wilcoxon; format: in vivo; conditions: i.p. single dose; for LD16 / LD84 / LD100: 14th day
Procedure: (§1) The comparative analysis of the acute toxic action of the temozolomide substance and of the polymeric composition based thereon (Composition 1 as in Example 1) was performed on male and female Balb/c mice weighing 19-21 g as of the time of testing, 6 animals in each group. The mice were kept in standard cages No. 4, in the conditions of unlimited access to water and food, at natural lighting changes. Testing the toxic action of the drugs started upon a two-week isolation period of the animals. The drug was administered intraperitoneally, as a single dose. Water for injection was used as a medium. Upon the drug administration, the animals were continuously monitored for 24 hours. The total observation time was 28 days. According to the research results, the LD50 values were calculated as per the state of animals on the 14th day upon the administration of the drugs. The value of the mean lethal dose (LD50) was determined by Litchfield-Wilcoxon method [Belenky M. L. Elementy kolichestvennoy otsenki farmakologicheskogo effekta [In Russian: Elements of Drug-Induced Effect Quantitative Estimation]/2-e izd. pererab. i dop. L.: Medgiz, 1963. p. 81-106].

[2] = as above; format: in vivo, mice; conditions: mouse, in vivo, ip, i.p. single dose, 14th day
Procedure: as §1

B16 melanoma tumor = assay: Antitumor activity in vivo, solid tumor of B-16 mouse melanoma; design: species or system mice; conditions: 40 mg/kg, 9th day of treatment

## Cn1nnc2c(C(N)=O)ncn2c1=O [Temozolomide Substance, 8-carbamoyl-3-methyl-imidazo[5,1-d]-1,2,3,5-tetrazin-4-(3H)-one]
[1]
  half lifetime: 1.8 h
Balb/c mice; female Balb/c mice
  Toxic dose range: Toxic dose range was 426.5-526.7 mg/kg
  LD16: LD16 426.5 mg/kg
  LD84: LD84 506.7 mg/kg
  LD100: LD100 526.7 mg/kg
Balb/c mice; male Balb/c mice
  Toxic dose range: Toxic dose range was 424.0-543.5 mg/kg
  LD16: LD16 424.0 mg/kg
  LD84: LD84 519.6 mg/kg
  LD100: LD100 543.5 mg/kg
[2]; female Balb/c mice
  LD50 at 14 days: 467 mg/kg
[2]; male Balb/c mice
  LD50 at 14 days: 472 mg/kg
B16 melanoma tumor
  tumor growth inhibition (TGI): 90%
